System: HeLa cells
Experiment: Transfection of pEGFP-C1 reporter plasmid into HeLa cells, GFP expression by flow cytometry
Format: cell-based, human
Details: HeLa cells 48 h after transfection with reporter plasmid, flow cytometry
Protocol: The corresponding cationic lipid (1 mM in methanol) were mixed in different proportions with DOPE (10 mg/mL in chloroform) and the organic solvent removed by evaporation in an oven (37° C.) overnight. The resultant thin films were then hydrated with PBS. The solutions were vortexed (10-20 s) and incubated at ambient temperature for 20 min. Plasmid DNA or siRNA solution (0.04 mg/mL in PBS or another isotonic solution) was subsequently added and the solution vortexed (10-20 s). The lipoplexes were incubated at room temperature for 20 min before being used.
Human HeLa cells were grown in RPMI supplemented with 4 mM glutamine, 10% FCS and 100 units/ml penicillin/streptomycin (RPMI-CM) until 80% confluence. HEK293 and B16F10 cells were grown in DMEM supplemented with 4 mM glutamine, 10% FCS and 100 units/ml penicillin/streptomycin (DMEM-CM) until 80% confluence. Cells were then suspended using trypsin/EDTA and counted. 2×10^4 cells in 150 μL of media per well were seeded in 96 well plates and incubated overnight. The day afterwards, the different lipoplex formulations were added. Each experiment was performed in quadruplicate, using Effectene® Transfection Reagent (Qiagen), Lipofectamine™ 2000 (Invitrogen) and Fugene (Roche) as positive controls and untreated cells as negative controls. After two days incubation at 37° C. and 5% CO2 (the change of media after transfection was not necessary), the green fluorescent protein (GFP) expression, as a consequence of transfecting the pEGFP-C1, was evidenced using a fluorescent microscope (Leica) and measured by flow cytometry. For the flow cytometry analysis, cells were washed twice with PBS, detached with trypsin/EDTA, harvested with 2% ferum bovine serum (FBS) in PBS, centrifuged and resuspended with 2% FBS in PBS and analyzed using a BD FACSaria flow cytometer. Transfection efficiency was measured as percentage of transfected cells.
Reagents that obtained greater than 50% transfection were also analyzed against HEK293 and B16F10 cell lines. Transfection results (+ percentages of transfection between 5-25%; ++ percentages of transfection between 25-50%; N.D. not determined). MTT toxicity assay results are indicated between brackets with 100% being cell viability of untreated cells.

Row | SMILES | Transfection results (percentage of transfected cells), HeLa
1 | CCCCCCCCCCCCCCCCCCCC(=O)NCCN(CCNC(=O)CCCCCCCCCCCCCCCCCCC)C(=O)CCC(=O)N[C@@H](CCCNC(=N)N)C(N)=O.O=C(O)C(F)(F)F [Compound A1-Sp1-A] | + (percentages of transfection between 5-25%)
2 | CCCCCCCCCCCCCCCCCCCCCCCC(=O)NCCN(CCNC(=O)CCCCCCCCCCCCCCCCCCCCCCC)C(=O)CCC(=O)N[C@@H](CCCNC(=N)N)C(N)=O.O=C(O)C(F)(F)F [Compound A1-Sp1-L] | + (percentages of transfection between 5-25%)
3 | CCCCCCCC/C=C\CCCCCCCC(=O)NCCN(CCNC(=O)CCCCCCC/C=C\CCCCCCCC)C(=O)CCC(=O)N[C@@H](CCCNC(=N)N)C(N)=O.O=C(O)C(F)(F)F [Compound A1-Sp1-O] | + (percentages of transfection between 5-25%)
4 | CCCCCCCCCCCCCCCC(=O)NCCN(CCNC(=O)CCCCCCCCCCCCCCC)C(=O)CCC(=O)N[C@@H](CCCNC(=N)N)C(N)=O.O=C(O)C(F)(F)F [Compound A1-Sp1-P] | + (percentages of transfection between 5-25%)
5 | CCCCCCCCCCCCCCCCCC(=O)NCCN(CCNC(=O)CCCCCCCCCCCCCCCCC)C(=O)CCC(=O)N[C@@H](CCCNC(=N)N)C(N)=O.O=C(O)C(F)(F)F [Compound A1-Sp1-S] | + (percentages of transfection between 5-25%)
6 | CCCCCCCCCCCCCCCCCCCC(=O)NCCN(CCNC(=O)CCCCCCCCCCCCCCCCCCC)C(=O)/C=C\C(=O)N[C@@H](CCCNC(=N)N)C(N)=O.O=C(O)C(F)(F)F [Compound A1-Sp2-A] | + (percentages of transfection between 5-25%)
7 | CCCCCCCCCCCCCCCCCCCCCCCC(=O)NCCN(CCNC(=O)CCCCCCCCCCCCCCCCCCCCCCC)C(=O)/C=C\C(=O)N[C@@H](CCCNC(=N)N)C(N)=O.O=C(O)C(F)(F)F [Compound A1-Sp2-L] | + (percentages of transfection between 5-25%)
8 | CCCCCCCC/C=C\CCCCCCCC(=O)NCCN(CCNC(=O)CCCCCCC/C=C\CCCCCCCC)C(=O)/C=C\C(=O)N[C@@H](CCCNC(=N)N)C(N)=O.O=C(O)C(F)(F)F [Compound A1-Sp2-O] | + (percentages of transfection between 5-25%)
9 | CCCCCCCCCCCCCCCC(=O)NCCN(CCNC(=O)CCCCCCCCCCCCCCC)C(=O)/C=C\C(=O)N[C@@H](CCCNC(=N)N)C(N)=O.O=C(O)C(F)(F)F [Compound A1-Sp2-P] | ++ (percentages of transfection between 25-50%)
10 | CCCCCCCCCCCCCCCCCC(=O)NCCN(CCNC(=O)CCCCCCCCCCCCCCCCC)C(=O)/C=C\C(=O)N[C@@H](CCCNC(=N)N)C(N)=O.O=C(O)C(F)(F)F [Compound A1-Sp2-S] | + (percentages of transfection between 5-25%)
11 | CCCCCCCCCCCCCCCCCCCC(=O)NCCCN(CCCNC(=O)CCCCCCCCCCCCCCCCCCC)C(=O)CCC(=O)N[C@@H](CCCNC(=N)N)C(N)=O.O=C(O)C(F)(F)F [Compound A1-Sp3-A] | + (percentages of transfection between 5-25%)
12 | CCCCCCCCCCCCCCCCCCCCCCCC(=O)NCCCN(CCCNC(=O)CCCCCCCCCCCCCCCCCCCCCCC)C(=O)CCC(=O)N[C@@H](CCCNC(=N)N)C(N)=O.O=C(O)C(F)(F)F [Compound A1-Sp3-L] | + (percentages of transfection between 5-25%)
13 | CCCCCCCC/C=C\CCCCCCCC(=O)NCCCN(CCCNC(=O)CCCCCCC/C=C\CCCCCCCC)C(=O)CCC(=O)N[C@@H](CCCNC(=N)N)C(N)=O.O=C(O)C(F)(F)F [Compound A1-Sp3-O] | ++ (percentages of transfection between 25-50%)
14 | CCCCCCCCCCCCCCCC(=O)NCCCN(CCCNC(=O)CCCCCCCCCCCCCCC)C(=O)CCC(=O)N[C@@H](CCCNC(=N)N)C(N)=O.O=C(O)C(F)(F)F [Compound A1-Sp3-P] | + (percentages of transfection between 5-25%)
15 | CCCCCCCCCCCCCCCCCC(=O)NCCCN(CCCNC(=O)CCCCCCCCCCCCCCCCC)C(=O)CCC(=O)N[C@@H](CCCNC(=N)N)C(N)=O.O=C(O)C(F)(F)F [Compound A1-Sp3-S] | + (percentages of transfection between 5-25%)
16 | CCCCCCCCCCCCCCCCCCCC(=O)NCCCN(CCCNC(=O)CCCCCCCCCCCCCCCCCCC)C(=O)/C=C\C(=O)N[C@@H](CCCNC(=N)N)C(N)=O.O=C(O)C(F)(F)F [Compound A1-Sp4-A] | + (percentages of transfection between 5-25%)
17 | CCCCCCCCCCCCCCCCCCCCCCCC(=O)NCCCN(CCCNC(=O)CCCCCCCCCCCCCCCCCCCCCCC)C(=O)/C=C\C(=O)N[C@@H](CCCNC(=N)N)C(N)=O.O=C(O)C(F)(F)F [Compound A1-Sp4-L] | + (percentages of transfection between 5-25%)
18 | CCCCCCCC/C=C\CCCCCCCC(=O)NCCCN(CCCNC(=O)CCCCCCC/C=C\CCCCCCCC)C(=O)/C=C\C(=O)N[C@@H](CCCNC(=N)N)C(N)=O.O=C(O)C(F)(F)F [Compound A1-Sp4-O] | + (percentages of transfection between 5-25%)
19 | CCCCCCCCCCCCCCCC(=O)NCCCN(CCCNC(=O)CCCCCCCCCCCCCCC)C(=O)/C=C\C(=O)N[C@@H](CCCNC(=N)N)C(N)=O.O=C(O)C(F)(F)F [Compound A1-Sp4-P] | + (percentages of transfection between 5-25%)
20 | CCCCCCCCCCCCCCCCCC(=O)NCCCN(CCCNC(=O)CCCCCCCCCCCCCCCCC)C(=O)/C=C\C(=O)N[C@@H](CCCNC(=N)N)C(N)=O.O=C(O)C(F)(F)F [Compound A1-Sp4-S] | + (percentages of transfection between 5-25%)
21 | CCCCCCCCCCCCCCCCCCCC(=O)NCCN(CCNC(=O)CCCCCCCCCCCCCCCCCCC)C(=O)CCC(=O)N[C@@H](CCCNC(=N)N)C(=O)N[C@@H](CCCNC(=N)N)C(N)=O.O=C(O)C(F)(F)F.O=C(O)C(F)(F)F [Compound A2-Sp1-A] | + (percentages of transfection between 5-25%)
22 | CCCCCCCCCCCCCCCCCCCCCCCC(=O)NCCN(CCNC(=O)CCCCCCCCCCCCCCCCCCCCCCC)C(=O)CCC(=O)N[C@@H](CCCNC(=N)N)C(=O)N[C@@H](CCCNC(=N)N)C(N)=O.O=C(O)C(F)(F)F.O=C(O)C(F)(F)F [Compound A2-Sp1-L] | + (percentages of transfection between 5-25%)
23 | CCCCCCCC/C=C\CCCCCCCC(=O)NCCN(CCNC(=O)CCCCCCC/C=C\CCCCCCCC)C(=O)CCC(=O)N[C@@H](CCCNC(=N)N)C(=O)N[C@@H](CCCNC(=N)N)C(N)=O.O=C(O)C(F)(F)F.O=C(O)C(F)(F)F [Compound A2-Sp1-O] | ++ (percentages of transfection between 25-50%)
24 | CCCCCCCCCCCCCCCCCC(=O)NCCN(CCNC(=O)CCCCCCCCCCCCCCCCC)C(=O)CCC(=O)N[C@@H](CCCNC(=N)N)C(=O)N[C@@H](CCCNC(=N)N)C(N)=O.O=C(O)C(F)(F)F.O=C(O)C(F)(F)F [Compound A2-Sp1-S] | + (percentages of transfection between 5-25%)
25 | CCCCCCCCCCCCCCCCCCCC(=O)NCCN(CCNC(=O)CCCCCCCCCCCCCCCCCCC)C(=O)/C=C\C(=O)N[C@@H](CCCNC(=N)N)C(=O)N[C@@H](CCCNC(=N)N)C(N)=O.O=C(O)C(F)(F)F.O=C(O)C(F)(F)F [Compound A2-Sp2-A] | ++ (percentages of transfection between 25-50%)
26 | CCCCCCCCCCCCCCCCCCCCCCCC(=O)NCCN(CCNC(=O)CCCCCCCCCCCCCCCCCCCCCCC)C(=O)/C=C\C(=O)N[C@@H](CCCNC(=N)N)C(=O)N[C@@H](CCCNC(=N)N)C(N)=O.O=C(O)C(F)(F)F.O=C(O)C(F)(F)F [Compound A2-Sp2-L] | + (percentages of transfection between 5-25%)
27 | CCCCCCCCCCCCCCCCCC(=O)NCCN(CCNC(=O)CCCCCCCCCCCCCCCCC)C(=O)/C=C\C(=O)N[C@@H](CCCNC(=N)N)C(=O)N[C@@H](CCCNC(=N)N)C(N)=O.O=C(O)C(F)(F)F.O=C(O)C(F)(F)F [Compound A2-Sp2-S] | ++ (percentages of transfection between 25-50%)
28 | CCCCCCCCCCCCCCCCCCCC(=O)NCCCN(CCCNC(=O)CCCCCCCCCCCCCCCCCCC)C(=O)CCC(=O)N[C@@H](CCCNC(=N)N)C(=O)N[C@@H](CCCNC(=N)N)C(N)=O.O=C(O)C(F)(F)F.O=C(O)C(F)(F)F [Compound A2-Sp3-A] | + (percentages of transfection between 5-25%)
29 | CCCCCCCCCCCCCCCCCCCCCCCC(=O)NCCCN(CCCNC(=O)CCCCCCCCCCCCCCCCCCCCCCC)C(=O)CCC(=O)N[C@@H](CCCNC(=N)N)C(=O)N[C@@H](CCCNC(=N)N)C(N)=O.O=C(O)C(F)(F)F.O=C(O)C(F)(F)F [Compound A2-Sp3-L] | + (percentages of transfection between 5-25%)

Source: patent US8759104B2, “Cationic lipids” (The University Court of the University of Edinburgh, priority 2010, dated 2014)
